Data set [1] relates to Imidazoline 1 (I1) receptor. Kind of data set: Imidazoline I1 receptor radioligand binding assay. Details: species or system bovine. The settings on record: for Ki: Imidazoline-1 (I1), equilibrium binding. As to the method:
Evaluation of the Affinity of Compounds for the Peripheral Imidazoline Receptor in Bovine Adrenal Medulla Glands Determined in a Radioligand Binding Assay.
Membrane homogenates of adrenal medulla glands (200 μg protein) are incubated for 60 min at 22° C. with 15 nM [^3H]clonidine in the absence or presence of the test compound in a buffer containing 137 mM NaCl, 2.68 mM KCl, 0.5 mM MgCl2, 8.1 mM Na2HPO4, 1.47 mM KH2PO4, 0.5 mM EGTA, 0.5 mM EDTA, 0.5% ascorbic acid and 0.1% BSA (pH 7.4). It also contains 10 μM RX821002 to block the α2-adrenergic receptors.
Nonspecific binding is determined in the presence of 10 μM rilmenidine.
Following incubation, the samples are filtered rapidly under vacuum through glass fiber filters (GF/B, Packard) presoaked with 0.3% PEI and rinsed several times with ice-cold 50 mM Tris-HCl using a 96-sample cell harvester (Unifilter, Packard). The filters are dried then counted for radioactivity in a scintillation counter (Topcount, Packard) using a scintillation cocktail (Microscint 0, Packard).
The results are expressed as a percent inhibition of the control radioligand specific binding.
The standard reference compound is rilmenidine, which is tested in each experiment at several concentrations to obtain a competition curve from which its IC50 is calculated.
Bibliographic reference: MOLDERINGS, G. J., MOURA, D., FINK, K., BONISCH, H. and GOTHERT, M. (1993), Binding of [3H]clonidine to I1-imidazoline sites in bovine adrenal medullary membranes, Naun.-Sch. Arch. Pharm., 348: 70.

The target in a further data set is T1, Adrenergic a2C (Homo sapiens, UniProt P18825).
T1 sequence (P18825 1-462): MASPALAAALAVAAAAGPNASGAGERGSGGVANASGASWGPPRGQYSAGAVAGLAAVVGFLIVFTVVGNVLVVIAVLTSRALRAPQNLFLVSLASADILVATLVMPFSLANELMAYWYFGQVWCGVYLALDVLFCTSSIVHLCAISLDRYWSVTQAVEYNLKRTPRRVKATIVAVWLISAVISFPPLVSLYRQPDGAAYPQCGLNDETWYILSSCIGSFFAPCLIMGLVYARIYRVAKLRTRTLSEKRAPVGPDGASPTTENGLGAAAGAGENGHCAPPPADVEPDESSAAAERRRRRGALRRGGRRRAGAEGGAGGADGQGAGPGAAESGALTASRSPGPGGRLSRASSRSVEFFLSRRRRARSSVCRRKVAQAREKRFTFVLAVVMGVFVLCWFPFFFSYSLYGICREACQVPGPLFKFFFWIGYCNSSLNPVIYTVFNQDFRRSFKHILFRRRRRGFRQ
Nature of the data set: receptor binding screen, Adrenergic a2C.

The target of the next data set is 5-HT7 (Homo sapiens, UniProt P34969). Kind of data set: receptor binding screen, 5-HT7. The settings on record: 5-HT7, 10 μM.
5-HT7, sequence (P34969 whole entry, species assumed): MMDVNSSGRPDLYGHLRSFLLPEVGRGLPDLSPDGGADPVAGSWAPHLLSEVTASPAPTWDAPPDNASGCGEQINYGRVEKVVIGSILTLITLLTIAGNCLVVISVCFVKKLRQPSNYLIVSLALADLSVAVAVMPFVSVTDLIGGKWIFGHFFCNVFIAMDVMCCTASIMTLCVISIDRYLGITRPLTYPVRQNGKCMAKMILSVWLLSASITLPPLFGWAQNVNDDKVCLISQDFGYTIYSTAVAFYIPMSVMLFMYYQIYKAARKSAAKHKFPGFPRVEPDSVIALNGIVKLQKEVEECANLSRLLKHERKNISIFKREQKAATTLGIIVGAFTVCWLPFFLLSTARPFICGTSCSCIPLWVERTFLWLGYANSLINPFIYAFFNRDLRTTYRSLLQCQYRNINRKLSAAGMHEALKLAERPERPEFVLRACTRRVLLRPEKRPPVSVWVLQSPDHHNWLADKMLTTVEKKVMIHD
In a further data set the target is Sigma-1 receptor (Homo sapiens, UniProt Q99720). Kind of data set: equilibrium binding, Sigma-1 receptor. Conditions: Sigma 1, equilibrium binding.
Sigma-1 receptor, sequence (Q99720 whole entry, species assumed): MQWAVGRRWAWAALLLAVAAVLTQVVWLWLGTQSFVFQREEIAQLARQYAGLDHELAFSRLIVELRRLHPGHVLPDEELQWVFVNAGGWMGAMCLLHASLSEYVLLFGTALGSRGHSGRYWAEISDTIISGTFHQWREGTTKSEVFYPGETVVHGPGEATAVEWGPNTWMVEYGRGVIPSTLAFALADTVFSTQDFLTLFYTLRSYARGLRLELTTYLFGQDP
Data set [2] concerns the target Imidazoline-2 (I2) receptor. Nature of the data set: central Imidazoline I2 receptor radioligand binding assay. Further details: species or system rat. As to the method: Evaluation of the Affinity of Compounds for the Central Imidazoline I2 Receptor in the Rat Cerebral Cortex Determined in a Radioligand Binding Assay.
Membrane homogenates of cerebral cortex (1 mg protein) are incubated for 30 min at 22° C. with 2 nM [^3H]idazoxan in the absence or presence of the test compound in a buffer containing 50 mM Tris-HCl (pH 7.4), 0.5 mM EDTA and 3 μM yohimbine.
Nonspecific binding is determined in the presence of 10 μM cirazoline.
Following incubation, the samples are filtered rapidly under vacuum through glass fiber filters (Filtermat B, Wallac) presoaked with 0.3% PEI and rinsed several times with an ice-cold buffer containing 50 mM Tris-HCl and 150 mM NaCl using a 48-sample cell harvester (Mach II, Tomtec). The filters are dried then counted for radioactivity in a scintillation counter (Betaplate 1204, Wallac) using a solid scintillator (Meltilex B/HS, Wallac).
The results are expressed as a percent inhibition of the control radioligand specific binding. The standard reference compound is idazoxan, which is tested in each experiment at several concentrations to obtain a competition curve from which its IC50 is calculated.
Bibliographic reference: BROWN, C. M., MAC KINNON, A. C., McGRATH, J. C., SPEDDING, M. and KILPATRICK A. T. (1990), α2-adrenoceptor subtypes and imidazoline-like binding sites in the rat brain, Brit. J. Pharmacol, 99: 803.

A further data set addresses Sigma-2 receptor (Homo sapiens, UniProt Q5BJF2). Kind of data set: equilibrium binding, Sigma-2 receptor. Conditions: Sigma 2, equilibrium binding.
The target of a further data set is T2, α2B-adrenergic receptor (Homo sapiens, UniProt P18089).
T2 sequence (P18089 1-450): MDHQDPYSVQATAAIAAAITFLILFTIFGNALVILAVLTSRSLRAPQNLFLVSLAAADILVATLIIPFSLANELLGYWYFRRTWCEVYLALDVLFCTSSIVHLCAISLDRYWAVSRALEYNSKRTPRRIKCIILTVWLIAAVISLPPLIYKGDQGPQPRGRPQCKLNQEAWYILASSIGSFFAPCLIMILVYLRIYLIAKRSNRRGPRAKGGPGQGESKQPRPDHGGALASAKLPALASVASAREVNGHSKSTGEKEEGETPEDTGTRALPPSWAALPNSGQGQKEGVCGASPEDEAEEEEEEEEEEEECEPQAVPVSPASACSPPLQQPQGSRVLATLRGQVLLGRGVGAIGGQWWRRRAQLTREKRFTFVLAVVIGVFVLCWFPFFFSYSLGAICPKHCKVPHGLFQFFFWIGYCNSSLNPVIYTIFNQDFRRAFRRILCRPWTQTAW
Kind of data set: ligand binding screen and equilibrium binding, α2B-adrenergic receptor. The settings on record: Adrenergic a2B; for Ki: equilibrium binding; for inhibition at 10 µM: inhibition of ligand binding.

In data set [3] the test system is Sigma receptor (non-selective). Kind of data set: ligand binding screen, non-selective Sigma receptor. Conditions: Sigma (non-select), inhibition of ligand binding.
The target in another data set is T3, human TAAR1 receptor (Homo sapiens, UniProt Q96RJ0).
T3 sequence (Q96RJ0 1-339): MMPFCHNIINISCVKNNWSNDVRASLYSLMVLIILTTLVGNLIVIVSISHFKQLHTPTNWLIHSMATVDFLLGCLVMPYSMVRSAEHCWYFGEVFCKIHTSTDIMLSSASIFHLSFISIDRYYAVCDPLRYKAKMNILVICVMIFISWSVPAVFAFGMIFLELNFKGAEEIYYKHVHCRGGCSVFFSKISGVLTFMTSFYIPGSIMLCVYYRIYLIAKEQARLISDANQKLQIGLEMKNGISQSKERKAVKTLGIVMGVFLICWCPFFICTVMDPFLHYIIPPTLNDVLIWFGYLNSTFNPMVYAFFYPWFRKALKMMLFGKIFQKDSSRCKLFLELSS
Nature of the data set: TAAR1 cAMP Biosensor Assay. The data set is classed as cell-based. The settings on record: for Efficacy: TAAR1 activation, final concentration of 10 μM, free base; for EC50: TAAR1 cAMP accumulation, agonist dose response, mucate salts. As to the method: To measure interactions with TAAR1, cell line stably expressing a recombinant human TAAR1 receptor were studied in the cAMP Biosensor Assay (DiscoveRx, Freemont, Calif.) since TAAR1 is coupled to G-proteins that signal through cAMP. The (S)- and (R)-Isometheptene isomers at a final concentration of 10 μM activate TAAR1 differentially, as shown on the table below, wherein (S)-Isometheptene activates more effectively than the R-Isometheptene. These activities may be linked to side-effects of racemic Isometheptene, due to the interaction of S-Isometheptene to the TAAR1 tyramine receptor.
Isometheptene Mucate USP, Isometheptene Mucate isomer 1, Isometheptene Mucate isomer 2 and p-Tyramine (control) in the TAAR1 cAMP Biosensor Assay of FIG. 23 as shown by the following diagrams (A), (B), (C), and (D). The data is shown as an agonist dose response curve, normalized to the maximal and minimal response observed in the presence of control ligand and vehicle respectively
The cAMP Hunter cell line expressing human TAAR1 was expanded from freezer stocks according to standard procedures. Cells were seeded in a total volume of 20 μL into white walled, 384-well microplates and incubated at 37° C. for the appropriate time prior to testing. cAMP modulation was determined using the DiscoveRx HitHunter cAMP XS+ assay. For agonist determination, cells were incubated with sample to induce response. Media was aspirated from cells and replaced with 15 μL 2:1 HBSS/10 mM Hepes:cAMP XS+ Ab reagent. Intermediate dilution of sample stocks was performed to generate 4× sample in assay buffer. 4.5 μL of 4× sample was added to cells and incubated at 37° C. or room temperature for 30 or 60 minutes. Final assay vehicle concentration was 1%. After appropriate compound incubation, assay signal was generated through incubation with 20 μL cAMP XS+ ED/CL lysis cocktail for one hour followed by incubation with 20 μL cAMP XS+ EA reagent for three hours at room temperature. Microplates were read following signal generation with a PerkinElmer Envision™ instrument for chemiluminescent signal detection. Compound activity was analyzed using CBIS data analysis suite (ChemInnovation, CA). For Gs agonist mode assays, percentage activity was calculated using the following formula: % Activity=100%×(mean RLU of test sample−mean RLU of vehicle control)/(mean RLU of MAX control−mean RLU of vehicle control).

The target of the next data set is T4, 5-HT 1A (Homo sapiens, UniProt P08908).
T4 sequence (P08908 1-422): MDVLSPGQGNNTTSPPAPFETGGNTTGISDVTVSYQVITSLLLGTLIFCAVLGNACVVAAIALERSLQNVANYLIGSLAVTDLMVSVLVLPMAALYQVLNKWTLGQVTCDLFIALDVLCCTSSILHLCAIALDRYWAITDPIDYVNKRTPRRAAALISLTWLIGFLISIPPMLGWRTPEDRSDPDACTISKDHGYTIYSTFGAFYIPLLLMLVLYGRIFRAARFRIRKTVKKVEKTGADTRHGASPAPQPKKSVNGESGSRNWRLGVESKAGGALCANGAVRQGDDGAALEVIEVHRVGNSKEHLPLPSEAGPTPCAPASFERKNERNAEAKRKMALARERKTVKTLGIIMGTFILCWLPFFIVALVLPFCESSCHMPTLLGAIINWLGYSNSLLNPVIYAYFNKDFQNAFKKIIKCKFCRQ
Nature of the data set: receptor binding screen, 5-HT 1A.

For data set [4] the following is noted: hydrochloride or mucate salt form; cited from earlier work.
The conditions of data set [5]: cited from earlier work; for plasma half-life: human volunteers, enantiomers.

Sigma-2 receptor, sequence (Q5BJF2 whole entry, species assumed): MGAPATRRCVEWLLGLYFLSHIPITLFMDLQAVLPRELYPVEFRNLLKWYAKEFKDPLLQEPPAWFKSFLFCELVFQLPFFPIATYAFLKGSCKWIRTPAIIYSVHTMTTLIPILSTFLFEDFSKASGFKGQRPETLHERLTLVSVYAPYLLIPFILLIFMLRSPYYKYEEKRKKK

Take `CN[C@@H](C)CCC=C(C)C` (single isomer, unassigned) [Isomer 1]: the “interaction with I1 less avidly than the R-Isometheptene enantiomer” value in [1] ((S) versus (R) enantiomer) is “about 60 fold”. Moreover, the Ki (as a rule, a measure of affinity in units of concentration, obtained from inhibition or displacement) in data set [1] was found to be 1100 nM; at Sigma-1 receptor, 2100 nM; in data set [2], 1100 nM; on Sigma-2 receptor, 5200 nM; on α2B-adrenergic receptor, 2700 nM. For the same molecule, the values for the inhibition at 10 µM at Adrenergic a2C, on 5-HT7 and at α2B-adrenergic receptor were 0%, 13% and 29%, respectively. For the same molecule, the “Inhibition @ 10 μM(%)” value in data set [2] came out at 84%; in data set [3], 87%. This molecule displayed an Efficacy at human TAAR1 receptor of 49.4%.

With `CNC(C)CCC=C(C)C` (racemic) [Racemic, reference compound], the inhibition (usually the change of the read-out against control, counted positive when it falls) at 10 µM worked out at 37% at 5-HT 1A, 41% at Adrenergic a2C, 46% at 5-HT7 and 76% on α2B-adrenergic receptor. The solubility in water entry in data set [4] is “soluble in water”.

Regarding `CN[C@@H](C)Cc1ccc2c(c1)OCO2` [(S)-MDMA], the plasma half-life in [5] is 3.6 ± 0.9 h.

Regarding `O=C(O)[C@@H](O)[C@H](O)[C@H](O)[C@@H](O)C(=O)O` (single isomer, unassigned) [Isometheptene Mucate Isomer 2], the concentration giving a half-maximal response (EC50) (in general, the concentration giving half of the maximal effect) on human TAAR1 receptor stood at 29500 nM.

As to `CNC(C)CCC=C(C)C` (single isomer, unassigned) [Isomer 2], the “binding to I1 receptor more avidly than the (S)-Isometheptene enantiomer” value in data set [1] ((R) versus (S) enantiomer) is on record as “about 60 fold”. The Ki turned out to be 18 nM in data set [1]; 1900 nM at Sigma-1 receptor; 1500 nM in data set [2]; 5600 nM on Sigma-2 receptor; 2300 nM at α2B-adrenergic receptor. The inhibition at 10 µM stood at 0% at Adrenergic a2C, 31% at 5-HT7 and 57% at α2B-adrenergic receptor. Also, the “Inhibition @ 10 μM(%)” value in data set [2] and in [3] was 86% in each case. Moreover, the Efficacy on human TAAR1 receptor turned out to be 25.6%.

On to `CN[C@@H](C)CCC=C(C)C` (single isomer, unassigned) [Isometheptene Mucate Isomer 1], for which the concentration giving a half-maximal response (EC50) on human TAAR1 receptor worked out at 21100 nM.

For `CNC(C)Cc1ccc2c(c1)OCO2` (racemic) [MDMA, 3,4-methylenedioxy-N-methylamphetamine], in data set [5] (given as the racemate), the half-life result is listed as “around 8 hours”.

Consider `CN[C@H](C)Cc1ccc2c(c1)OCO2` [(R)-MDMA, (R)-3,4-methylenedioxy-N-methylamphetamine], for which, in data set [5] (40 mg oral dose in human volunteers), the “area under the blood plasma concentration versus time curve (AUC), (R)-MDMA relative to (S)-MDMA” value is listed as “two to four times higher”. The plasma half-life in data set [5] is 5.8 ± 2.2 h.

Source of the values: patent publication US9403755B2, “Isometheptene isomer” (TONIX PHARMACEUTICALS INC., priority 2013, dated 2016).
